From PMC8049364, “Quantification of Macrophage-Driven Inflammation During Myocardial Infarction with ^18F-LW223, a Novel TSPO Radiotracer with Binding Independent of the rs6971 Human Polymorphism” (Journal of Nuclear Medicine, 2021)

Target: T1, TSPO (Rattus norvegicus, UniProt P16257)
T1 construct: Thirty-three adult male Sprague–Dawley rats; from tissue; host or cells: living adult male Sprague-Dawley rats; heart, LV anterior wall, lung and brain VOIs
Assay: PET/CT imaging and 2-tissue-compartment kinetic modelling in naïve and PK11195-blocked rats
Format: in vivo
Set-up: K1 (2T analysis), mean / k2 (2T analysis), mean / k3 (2T analysis), mean / k4 (2T analysis), mean / VT (2T analysis), mean: unit not given here
Procedure: Thirty-two PET scans were performed with ^18F-LW223 (17.8 ± 1.5 MBq, intravenous bolus, mean ± SEM). Naïve and MI rat scans were acquired immediately after intravenous bolus injection of ^18F-LW223. […] Dosimetry studies were conducted using mice and 240-min PET scans.
A commercially available system (Twilite2; Swisstrace) was used for the measurement of blood radioactivity as previously described ([17]). The whole-blood arterial input function measured by the automatic blood sampler was corrected for the plasma–to–whole-blood ratio and for metabolism in vivo.
Data were acquired using a PET/CT small-animal scanner (nanoPET/CT; Mediso). A CT scan (semicircular full trajectory, maximum field of view, 480 projections, 50 kVp, 300 ms, and 1:4 binning) was acquired for attenuation correction. Immediately after radiotracer administration, a 120- or 240-min emission scan was obtained using 3-dimensional 1:5 mode. For rat studies, rebinning was 18 × 10 s, 2 × 30 s, 1 × 60 s, 2 × 2 min, 10 × 5 min, 6 × 10 min, or 18 × 10 min. For mouse studies, rebinning was 4 × 5 min, 4 × 10 min, or 9 × 20 min. Rat PET studies were reconstructed using the iterative Tera-Tomo 3-dimensional reconstruction algorithm (Mediso), which includes point-spread correction, and the following settings: 4 iterations, 6 subsets, full detector model, low regularization, spike filter on, voxel size of 0.4 mm, and 400- to 600-keV energy window. Mouse dosimetry PET data were reconstructed using filtered backprojection, a voxel size of 0.4 mm, and a 400- to 600-keV energy window. All PET data were corrected for randoms, scatter, and attenuation.
Reconstructed scans were imported into PMOD, version 3.8 (PMOD Technologies). Volumes of interest (VOIs) were manually drawn around the brain, heart, and lung using CT images. To sample the infarct area (or an equivalent area in naïve hearts), averaged PET images (0–120 min) were used to place 3 spheric VOIs at the center of the infarct territory within the ventricular wall (1.5 mm^3). […] Time–activity curves were generated, and SUVs were calculated as concentration in the VOI divided by injected dose divided by animal weight. Kinetic modeling was performed using the 2-tissue-compartment model to estimate the kinetic rate constants K1–k4 and the total volume of distribution (VT) in different tissues. Blood volume fraction (VB) was not modeled in this study. Two-tissue-compartment modeling was selected as the preferred model on the basis of a comparison of goodness and robustness of fitting versus several other models (Supplemental Fig. 3; Supplemental Table 2). The binding potential relative to nondisplaceable volume (BPND) was defined as k3/k4 ([19]). The transfer-corrected BPND, termed BPTC, was formulated as follows:Eq. 1 BPTC=k3/k4÷K1,

[1] = Brain, Blocked Naive (PK11195, 1mg/kg) n = 3
[2] = Global Heart, Blocked Naive (PK11195, 1mg/kg) n = 3
[3] = LV Anterior Wall, Blocked Naive (PK11195, 1mg/kg) n = 3
[4] = Lung, Blocked Naive (PK11195, 1mg/kg) n = 3

Structure (SMILES): CC[C@@H](C)N(C)C(=O)c1nc2ccccc2c(-c2ccccc2)c1C[18F] [^18F-LW223]
- K1 (2T analysis), mean [1]: 0.06
- VT (2T analysis), mean [1]: 0.93
- k2 (2T analysis), mean [1]: 0.11
- k3 (2T analysis), mean [1]: 2.324
- k3/k4 (2T analysis), mean [1]: 0.71
- k4 (2T analysis), mean [1]: 2.33
- K1 (2T analysis), mean (Brain, Naive n = 6): 0.14
- VT (2T analysis), mean (Brain, Naive n = 6): 1.6
- k2 (2T analysis), mean (Brain, Naive n = 6): 0.18
- k3 (2T analysis), mean (Brain, Naive n = 6): 0.016
- k3/k4 (2T analysis), mean (Brain, Naive n = 6): 1.22
- k4 (2T analysis), mean (Brain, Naive n = 6): 0.01
- K1 (2T analysis), mean [2]: 0.19
- VT (2T analysis), mean [2]: 4.56
- k2 (2T analysis), mean [2]: 0.23
- k3 (2T analysis), mean [2]: 0.721
- k3/k4 (2T analysis), mean [2]: 4.52
- k4 (2T analysis), mean [2]: 0.13
- K1 (2T analysis), mean (Global Heart, Naive n = 6): 0.58
- VT (2T analysis), mean (Global Heart, Naive n = 6): 9.93
- k2 (2T analysis), mean (Global Heart, Naive n = 6): 0.33
- k3 (2T analysis), mean (Global Heart, Naive n = 6): 0.031
- k3/k4 (2T analysis), mean (Global Heart, Naive n = 6): 4.77
- k4 (2T analysis), mean (Global Heart, Naive n = 6): 0.01
- K1 (2T analysis), mean [3]: 0.28
- VT (2T analysis), mean [3]: 75.25
- k2 (2T analysis), mean [3]: 0.08
- k3 (2T analysis), mean [3]: 0.855
- k3/k4 (2T analysis), mean [3]: 12.64
- k4 (2T analysis), mean [3]: 0.23
- K1 (2T analysis), mean (LV Anterior Wall, Naive n = 6): 0.9
- VT (2T analysis), mean (LV Anterior Wall, Naive n = 6): 29.95
- k2 (2T analysis), mean (LV Anterior Wall, Naive n = 6): 0.26
- k3 (2T analysis), mean (LV Anterior Wall, Naive n = 6): 0.033
- k3/k4 (2T analysis), mean (LV Anterior Wall, Naive n = 6): 7.99
- k4 (2T analysis), mean (LV Anterior Wall, Naive n = 6): 0.00
- K1 (2T analysis), mean [4]: 0.16
- VT (2T analysis), mean [4]: 2.2
- k2 (2T analysis), mean [4]: 0.35
- k3 (2T analysis), mean [4]: 0.181
- k3/k4 (2T analysis), mean [4]: 3.19
- k4 (2T analysis), mean [4]: 0.05
- K1 (2T analysis), mean (Lung, Naive n = 6): 0.94
- VT (2T analysis), mean (Lung, Naive n = 6): 6.94
- k2 (2T analysis), mean (Lung, Naive n = 6): 0.32
- k3 (2T analysis), mean (Lung, Naive n = 6): 0.031
- k3/k4 (2T analysis), mean (Lung, Naive n = 6): 1.38
- k4 (2T analysis), mean (Lung, Naive n = 6): 0.02
- specificity of in vivo binding to TSPO (PK11195 1 mg/kg intravenously, blocking and displacement): blocked and displaced by PK11195
- BPTC (anterior wall of naïve animals): 10.0 ± 2.4 cm^3/mL/min
- excretion routes (mice and rats): both the urinary and the hepatobiliary excretion routes
- Peak SUV, brain (naïve rat): 0.83 ± 0.18 g/mL
- SUVpeak, heart (rat): 2.5
- SUVpeak, lung (rat): 4.0
- VT in the brain (rat): 1.1–2.2 mL/cm^3
